Data taken from BindingDB's records for doi:10.1021/jm00145a012 (1985).

Molecular target: Dihydrofolate reductase (Bos taurus) (UniProt P00376)
Assay: In vitro inhibitory concentration against beef liver dihydrofolate reductase

Chain of Dihydrofolate reductase (Bos taurus) (P00376 whole entry, looked up): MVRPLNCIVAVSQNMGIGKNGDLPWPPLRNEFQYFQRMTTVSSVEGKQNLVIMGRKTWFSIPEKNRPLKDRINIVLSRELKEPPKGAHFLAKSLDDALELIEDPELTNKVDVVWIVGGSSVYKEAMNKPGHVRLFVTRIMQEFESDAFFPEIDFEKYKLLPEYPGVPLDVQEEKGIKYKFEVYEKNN

Row | SMILES | IC50
1 | Nc1nc2ncc(CCc3ccc(C(=O)N[C@@H](CCC(=O)O)C(=O)O)cc3)cc2c(=O)[nH]1 | 49 µM
2 | Nc1nc(N)c2c(n1)NCC(CCc1ccc(C(=O)NC(CCC(=O)O)C(=O)O)cc1)C2 (centres undefined) [2-{4-[2-(2,4-Diamino-5,6,7,8-tetrahydro-pyrido[2,3-d]pyrimidin-6-yl)-ethyl]-benzoylamino}-pentanedioic acid] | 0.071 µM
3 | Nc1nc(N)c2cc(CCc3ccc(C(=O)NC(CCC(=O)O)C(=O)O)cc3)cnc2n1 (centres undefined) [2-{4-[2-(2,4-Diamino-pyrido[2,3-d]pyrimidin-6-yl)-ethyl]-benzoylamino}-pentanedioic acid] | 0.043 µM
4 | Nc1nc2c(c(=O)[nH]1)CC(CCc1ccc(C(=O)NC(CCC(=O)O)C(=O)O)cc1)CN2 (centres undefined) [(DDATHF) 5,10-Dideazatetrahydrofolic acid2-{4-[2-(2-Amino-4-oxo-3,4,5,6,7,8-hexahydro-pyrido[2,3-d]pyrimidin-6-yl)-ethyl]-benzoylamino}-pentanedioic acid] | 560 µM
